Series [1] is described as follows: Solubility of TPA carboxylates, Example 6. It is filed as physicochemical. The following applies: aqueous; table title ambient temperature, text 37° C.
A short description of series [2]: Initial hydrolysis of TPA carboxylates monitored by HPLC at 37° C. It is filed as physicochemical. The following applies: H2O, I=0.02 M. As to the method:
The slowest initial hydrolysis rate was found for complex 2c t-[Pt(OAc)2(NH3)(2-pic)], with just 4% hydrolysis occurring after 9 h. The hydrolysis of the formate complex 4f was the fastest, with 24% hydrolysis occurring after 9 h. The hydrolysis rates of the acetate complexes followed the pattern 2c<4c<3c. […] Thus, hydrolysis of the acetate complexes is slowed by an approximate order of magnitude compared to their direct chloro analogs but there is little difference in the present case between 3- and 4-picoline. Steric hindrance therefore predominates over the electronic effects of the methyl group. In the case of the chloride complexes, the 3-pic directs less electron density to the platinum rendering it less nucleophilic relative to the 2-pic and 4-pic. 14 We observe the same trend in the acetate complexes, but the effect is lessened due to the carboxylate group being a weak ligand, with a low trans influence and trans effect.^11

The subject of series [3] is guanosine-5′-monophosphate (5′-GMP, model for DNA). Kind of series: Reaction with 5′-GMP followed by 195Pt NMR. The following applies: within 24 h. An excerpt:
The slow hydrolysis is a unique feature of two carboxylate ligands in a trans-axial position and can be modulated by choice of carboxylate. To examine how this might affect possible reactions with biomolecules, a preliminary study of the reactions of 4e with guanosine-5′-monophosphate (5′-GMP, model for DNA) and N-acetyl-L-methionine (N-AcMet, model for sulfur ligand metabolism) was made by ^195Pt NMR Spectroscopy. In the case of 5′-GMP the peak of the starting material at −1450 ppm is only gradually replaced by a new peak at −2365 ppm. This shift is consistent with the formation of a species that has a PtN4 coordination sphere,^26 due to replacement of both formate groups. Approximately 50% reaction (as judged by the intensity of the ^1H H8 signal and ^195Pt NMR signals), occurred within 24h. For N-AcMet the starting material was approximately 50% of total intensity even after 8 h. […] The chemical shift is consistent with a PtN2O2 coordination sphere—this could arise from displacement of formate by H2O/OH or an O-bound methionine.^27 This species preceded the formation of the N-AcMet product at −3320 ppm consistent with a PtN2S2 coordination sphere, trans-[Pt(NH3)(4-pic)(NAcMet)2],^23,28 which was 40% of the total platinum species after 10 h. […]

Series [4] can be described thus: Reaction with N-AcMet followed by 195Pt NMR. An excerpt: The slow hydrolysis is a unique feature of two carboxylate ligands in a trans-axial position and can be modulated by choice of carboxylate. To examine how this might affect possible reactions with biomolecules, a preliminary study of the reactions of 4e with guanosine-5′-monophosphate (5′-GMP, model for DNA) and N-acetyl-L-methionine (N-AcMet, model for sulfur ligand metabolism) was made by ^195Pt NMR Spectroscopy. In the case of 5′-GMP the peak of the starting material at −1450 ppm is only gradually replaced by a new peak at −2365 ppm. This shift is consistent with the formation of a species that has a PtN4 coordination sphere,^26 due to replacement of both formate groups. Approximately 50% reaction (as judged by the intensity of the ^1H H8 signal and ^195Pt NMR signals), occurred within 24h. For N-AcMet the starting material was approximately 50% of total intensity even after 8 h. […] The chemical shift is consistent with a PtN2O2 coordination sphere—this could arise from displacement of formate by H2O/OH or an O-bound methionine.^27 This species preceded the formation of the N-AcMet product at −3320 ppm consistent with a PtN2S2 coordination sphere, trans-[Pt(NH3)(4-pic)(NAcMet)2],^23,28 which was 40% of the total platinum species after 10 h. […] Whether the possible formation of an O-bound methionine species is a reflection of the low pKal and the electronic effects of a π-acceptor ligand is worthy of further investigation.

The subject of series [5] is human ovarian cancer cell line A2780. Briefly: MTT growth inhibition assay. The series is classed as cell-based. The following applies: 72 h. The source says: • (1) Van Beusichem, M.; Farrell, N. Inorg. Chem. 1992, 31, 634-639. • (2) Farrell, N.; Kelland, L. R.; Roberts, J. D.; Van Beusichem, M. Cancer Res. 1992, 52, 5065-5072. • (3) Farrell, N. Cancer Invest. 1993, 11, 578-589. • (4) Coluccia, M.; Nassi, A.; Loseto, F.; Boccarelli, A.; Mariggio, M. A.; Giordano, D.; Intini, F. P.; Caputo, P.; Natile, G. J. Med. Chem. 1993, 36, 510-512. • (5) Khazanov, E.; Barenholz, Y.; Gibson, D.; Najajreh, Y. J. Med. Chem. 2002, 45, 5196-5204. • (6) Najajreh, Y.; Perez, J. M.; Navarro-Ranninger, C.; Gibson, D. J. Med. Chem. 2002, 45, 5189-5195. • (7) Montero, E. I.; Diaz, S.; Gonzalez-Vadillo, A. M.; Perez, J. M.; Alonso, C.; Navarro-Ranninger, C. J. Med. Chem. 1999, 42, 4264-4268. • (8) Natile, G.; Coluccia, M. Coord. Chem. Rev. 2001, 216-217, 383-410. • (9) Fojo, T.; Farrell, N.; Ortuzar, W.; Tanimura, H.; Weinstein, J.; Myers Timothy, G. I Crit. Rev. Oncol./ Hematol. 2005, 53, 25-34. • (10) Murphy, R. F.; Farrell, N.; Aguila, A.; Okada, M.; Balis, F. M.; Fojo, T. Proc. Am. Assoc. […] IC50 values were determined graphically

The nature of series [6]: Aqueous solubility of TPA-acetate complexes (sequential addition of water). It is filed as physicochemical. The following applies: ambient temperature. As to the method: (§1) The aqueous solubility of the acetate compounds and the acid dissociation constants of the corresponding aqua species are given in Table 1. Use of acetates enhances aqueous solubility which is dependent on the exact nature of the donor ligands. The pKa values were determined by potentiometric titration of solutions of trans-[Pt(H2O)2(L)(L′)]^2+ (formed by the dissolution of the isolated trans-[Pt(NO3)2(L)(L′)]) with NaOH. […] (X=2,3,4-Me).^30

Series [7] in a line: pKa of corresponding TPA diaqua complexes by potentiometric titration with NaOH. It is filed as physicochemical. The following applies: corresponding diaqua complex trans-[Pt(OH2)2(L)(L′)], ambient temperature. As to the method: as §1
Series [8] is described as follows: Hydrolysis (first aquation step) followed by HPLC, Example 5. The series is classed as physicochemical. The following applies: nanopure water. As to the method: For hydrolysis studies, […] complex was dissolved in 1 mL of nanopure water. The pH values of the samples were controlled in regular intervals and readjusted if necessary by addition of HNO3 (1 M, 0.1 M, 0.01 M) or NaOH (1 M, 0.1 M, 0.01 M). Aliquots of 20 μL were taken from the bulk solution for HPLC analysis. The overall scheme may be described as follows:
The aquated species were identified by comparison with the hydrolysis profile produced by the corresponding (labile) nitrate compounds. The rate constants for the first aquation step k1 are given in Table 2 and compared with other platinum complexes containing one or two labile ligands. […] In particular, these rates are 2-3 orders of magnitude lower than that of transplatin itself. The rate of aquation tends toward that of carboplatin which in phosphate buffer at 310 K gave a hydrolysis rate of 7.2×10^−7 s^−1 (but in aqueous solution gives a barely measurable rate constant of <5×10^−9 s^−1, which is modulated by the presence of buffer, nucleophile or acid). ^31,32No evidence for formation of Pt(TV) species during hydrolysis is detected under these conditions.^33

Another series concerns 41M. Kind of series: Growth inhibition in human ovarian cancer cell line panel, 96 h exposure. The series is classed as cell-based. As to the method: (§2) It is noteworthy that the acetate compounds maintain cytotoxicity with low resistance factors in all cases. The trans-[Pt(OAc)2(NH3)2] compound is also very water-soluble but the cytotoxicity of >100 μM confirms the requirement for a planar amine to enhance cytotoxicity in the trans geometry.

For a further series, the system named is A2780. The description is as above. It is filed as cell-based. As to the method:
as §2

In the next series the test system is CH1. The series is described as above. The series is classed as cell-based. As to the method: as §2
Setting [9] is: RF = (IC50 Resistant)/(IC50 Sensitive).

Take `Cc1ccncc1.N.O=C[O-].O=C[O-].[Pt+2]` [4e, trans-[Pt(OFm)2(NH3)(4-pic)]]: the “Solubility (mg/mL), TPA Substituted Carboxylates” value in series [1] stood at 35 mg/mL. The “k1, initial hydrolysis rate constant” value in series [2] was determined as 1.07e-05 s⁻¹. The “reaction with 5′-GMP (by 1H H8 and 195Pt NMR signal intensity)” value in [3] was “Approximately 50%”. The “starting material remaining, of total intensity” value in series [4] (after 8 h) is given as “Approximately 50%”. Moreover, the “N-AcMet product at −3320 ppm (PtN2S2), of total platinum species” value in series [4] (after 10 h) was 40%. In addition, the “new species at −1775 ppm (PtN2O2), of total reaction product” value in series [4] (over 10 h) was at most 15%. Moreover, the “cytotoxicity (growth inhibition)” value in series [5] is recorded as “most cytotoxic”.

The term Solubility denotes the dissolved amount per volume that the medium holds. A higher Solubility goes with much dissolved substance. Usually IC50 stands for the concentration that gives 50% inhibition. A low value points to greater potency. As for `CC(=O)[O-].CC(=O)[O-].N.[Pt+2].c1ccc2cnccc2c1` [trans-[Pt(OAc)2(NH3)(iquin)], trans-[diacetato(ammine)(isoquinoline)platinum(II)]], in series [6], the Solubility is 5.2 mg/mL. In [7], this molecule displayed a pKa1 of 3.78. Further, the pKa2 in series [7] worked out at 6.92. Further, in series [8], the “k1, rate constant for the first aquation step” value was “(7.4 ± 1.5) × 10^−7 s^−1”. The values for the IC50 with 41M, in the series on A2780 and in the series on CH1 were 22 µM, 13 µM and 20 µM, respectively. Also, in the series on 41M (setting [9]), the “41M RF” value is “(0.26)”. Moreover, in the series with A2780 (setting [9]), the “A2780 RF” value is recorded as “(1.69)”. The “CH1 RF” value in the series on CH1 (setting [9]) is “(0.37)”.
